Laboratory results taken from ChEMBL document CHEMBL1201862, “PubChem BioAssay data set” (2004).
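Values below derive from 48-hour exposures of cells grown in 96-well plates, with endpoints linearly interpolated between the two concentrations bracketing the appropriate inhibition level. GI50 marks 50% less growth.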 Calls of active or inactive are those of the source. Cut-off read from the data, not from the text of the source: active = GI50 up to about 1.1 µM and inactive = higher. Where a SMILES comes first, the peptide text is derived from it. The star is where a group is joined. Cbz = O=C(OCc1ccccc1)*; Boc = CC(C)(C)OC(=O)*; OSu = O=C1CCC(=O)N1O*; Bn = c1ccc(C*)cc1

What was measured:
Assay in all cases: DTP human tumour cell line panel, 48 h
SR = tested on: SR
SK-MEL-28 = tested on: SK-MEL-28
HL-60 = tested on: HL-60
786-0 = tested on: 786-0
OVCAR-8 = tested on: OVCAR-8
MDA-MB-231 = tested on: MDA-MB-231
SNB-75 = tested on: SNB-75
RXF 393 = tested on: RXF 393
PC-3 = tested on: PC-3
HT-29 = tested on: HT-29
HCT-116 = tested on: HCT-116
HOP-92 = tested on: HOP-92
NCI-H226 = tested on: NCI-H226
IGROV-1 = tested on: IGROV-1
OVCAR-5 = tested on: OVCAR-5
UACC-257 = tested on: UACC-257
COLO 205 = tested on: COLO 205
MDA-MB-435 = tested on: MDA-MB-435
NCI/ADR-RES = tested on: NCI/ADR-RES
SF-295 = tested on: SF-295

SMILES	GI50 (SR)	GI50 (SK-MEL-28)	GI50 (HL-60)	GI50 (786-0)	GI50 (OVCAR-8)	GI50 (MDA-MB-231)	GI50 (SNB-75)	GI50 (RXF 393)	GI50 (PC-3)	GI50 (HT-29)	GI50 (HCT-116)	GI50 (HOP-92)	GI50 (NCI-H226)	GI50 (IGROV-1)	GI50 (OVCAR-5)	GI50 (UACC-257)	GI50 (COLO 205)	GI50 (MDA-MB-435)	GI50 (NCI/ADR-RES)	GI50 (SF-295)
CC(C)(C)OC(=O)NC(Cc1ccc(OCc2ccccc2)cc1)C(=O)NC(CCCCNC(=O)OCc1ccccc1)C(=O)ON1C(=O)CCC1=O (configuration not stated) (Boc-Tyr(Bn)-Lys(Cbz)-OSu; configuration not given here)	25.4 µM (inactive)	15.8 µM (inactive)	22 µM (inactive)	18.9 µM (inactive)	20.8 µM (inactive)	22.3 µM (inactive)	21.8 µM (inactive)	16.9 µM (inactive)	22.1 µM (inactive)	23.5 µM (inactive)	19.9 µM (inactive)	> 10 µM (inactive)	29.2 µM (inactive)	16.8 µM (inactive)	31.3 µM (inactive)	34.3 µM (inactive)	27 µM (inactive)	–	–	–
CN1CCN(/C(N)=C(\C#N)C(=O)Nc2ccc(Cl)cc2)CC1	35.1 µM (inactive)	46.6 µM (inactive)	–	95.5 µM (inactive)	> 100 µM (inactive)	–	> 100 µM (inactive)	–	39.8 µM (inactive)	> 100 µM (inactive)	41.6 µM (inactive)	> 100 µM (inactive)	> 100 µM (inactive)	99.1 µM (inactive)	> 100 µM (inactive)	59 µM (inactive)	18.7 µM (inactive)	37.5 µM (inactive)	87.9 µM (inactive)	75.7 µM (inactive)
CC1=CC(=O)C(=O)C2=C1OC1(C2)C(C)CCC2C3(C)CCC(O)C(C)(C)C3CCC21C (configuration not stated)	23.8 µM (inactive)	20.5 µM (inactive)	2.22 µM (inactive)	17.4 µM (inactive)	19.5 µM (inactive)	–	48.4 µM (inactive)	15.3 µM (inactive)	–	20.6 µM (inactive)	15.3 µM (inactive)	17.3 µM (inactive)	18.2 µM (inactive)	17.6 µM (inactive)	18.2 µM (inactive)	18.9 µM (inactive)	16.3 µM (inactive)	–	–	15.7 µM (inactive)
O=c1oc2c3ccc4ccccc4c3n(Cc3nc4ccccc4[nH]3)c2c2ccccc12	0.791 µM (active)	> 26.7 µM (inactive)	3.7 µM (inactive)	7.16 µM (inactive)	13.7 µM (inactive)	–	5.51 µM (inactive)	9.4 µM (inactive)	–	4.48 µM (inactive)	4.72 µM (inactive)	> 29.3 µM (inactive)	7.03 µM (inactive)	> 29.3 µM (inactive)	> 36.2 µM (inactive)	5.01 µM (inactive)	12.7 µM (inactive)	–	–	9.14 µM (inactive)
O=C(/C=C/c1ccccc1)CSc1nc[nH]n1	62.1 µM (inactive)	56.9 µM (inactive)	45.9 µM (inactive)	> 100 µM (inactive)	> 100 µM (inactive)	–	14.3 µM (inactive)	> 100 µM (inactive)	> 100 µM (inactive)	44.4 µM (inactive)	33 µM (inactive)	–	> 100 µM (inactive)	> 100 µM (inactive)	> 100 µM (inactive)	> 100 µM (inactive)	> 100 µM (inactive)	–	> 100 µM (inactive)	81.1 µM (inactive)
CC(=O)c1c(O)ccc2c1c1c(n2C)C(=O)c2ccccc2C1=O	2.25 µM (inactive)	2.99 µM (inactive)	> 100 µM (inactive)	4.9 µM (inactive)	5.3 µM (inactive)	2.52 µM (inactive)	2.32 µM (inactive)	3.84 µM (inactive)	–	> 100 µM (inactive)	3.01 µM (inactive)	–	–	1.82 µM (inactive)	> 100 µM (inactive)	> 100 µM (inactive)	> 100 µM (inactive)	–	–	6.92 µM (inactive)
C=CSCCC(N)C(=O)O (configuration not stated)	> 100 µM (inactive)	> 100 µM (inactive)	> 100 µM (inactive)	> 100 µM (inactive)	> 100 µM (inactive)	–	> 100 µM (inactive)	> 100 µM (inactive)	–	> 100 µM (inactive)	> 100 µM (inactive)	> 100 µM (inactive)	> 100 µM (inactive)	> 100 µM (inactive)	> 100 µM (inactive)	> 100 µM (inactive)	> 100 µM (inactive)	–	–	> 100 µM (inactive)
CCN(CC)CCCNc1ccc2nc(C)n3c4ccc(O)cc4c(=O)c1c23	–	12.7 µM (inactive)	1.61 µM (inactive)	1.81 µM (inactive)	1.95 µM (inactive)	–	0.881 µM (active)	3.89 µM (inactive)	1.47 µM (inactive)	1.17 µM (inactive)	0.713 µM (active)	2.89 µM (inactive)	6.46 µM (inactive)	1.64 µM (inactive)	6.22 µM (inactive)	15.5 µM (inactive)	5.18 µM (inactive)	9.89 µM (inactive)	12.6 µM (inactive)	5.16 µM (inactive)
